# In US5273991A, “Imidazole-containing compositions and methods of use thereof analogs of distamycin” (Research Corporation Technologies, Inc., priority 1992, dated 1993):
# Tests used:
# Type in all cases: binding
# calf thymus DNA = assay: ethidium displacement assay, calf thymus DNA; conditions: ± 0.02 × 10^5 M^-1, pH 7.4
# Description: (§1) The ethidium displacement assay is based on the fact that ethidium binding to DNA causes a large (approximately 25 fold) florescence enhancement as a result of the hydrophobic environment surrounding the ethidium molecule. Displacement of ethidium results in decreased fluorescence, and thus binding constants of drugs to DNA can be estimated and compared by measuring the loss of fluorescence as a function of added drug. The drug concentration which produces 50% inhibition of florescence is approximately inversely proportional to the apparent binding constant.
# (§2) The relative DNA binding constants (Kapp) of distamycin and Compounds 6-10 to calf thymus DNA, T4 coliphage DNA, poly(dAdT) and poly(dGdC) were determined using the ethidium displacement assay (Morgan et al., 1979). The Kapp of ethidium bromide (Debart et al., 1989) is included for comparison. 25 μL of a 2A260 DNA solution was added to 2 mL of ethidium bromide buffer (250 μL of 1.3 mM ethidium bromidestock, 314.9 mg Tris-HCl, 60.8 mg Tris base and 930/mg of Na2 EDTA.2H2 O in 250 ml H2 O) pH 7.4 and the maximum fluorescence was measured (excitation wavelength=546 nm, emission wavelength=600 nm) at ambient temperature.
# (§3) DNA solutions of 2A260 were prepared as follows: T4 coliphage DNA: 10 units of DNA were dissolved in 1 mL of 10 mM sodium phosphate (pH 7.1) and 0.25 mM EDTA buffer to give a 10A260 solution. 0.3 mL of the stock solution were diluted to 1.5 mL with 10 mM sodium phosphate (pH 7.1) and 0.25 mM EDTA buffer to give a 2A260 solution. Calf thymus DNA: 100 units of DNA were dissolved in 5 mL of 10 mM sodium phosphate (pH 7.1) and 0.25 mM EDTA buffer to give a 20A260 solution. 1.5 mL of the stock solution were diluted to 15 mL with 10 mM sodium phosphate (pH 7.1) and 0.25 mM EDTA buffer to give a 2A260 solution. Poly(dA-dT) and Poly(dG-dC) DNA: 100 units of DNA were dissolved in 10 mL of 10 mM sodium phosphate pH 7.1) and 0.25 mM EDTA buffer to give a 10A260 solution. 3 mL of the stock solution were diluted to 15 mL with 10 mM sodium phosphate (pH 7.1) and 0.25 mM EDTA buffer to give a 2A260 solution.
# (§4) Aliquots of 10 mM stock drug solution (1 mg of drug to be tested was dissolved with 1 mole equivalent of 0.1M HCl, and then diluted with appropriate volume of distilled water to make a 10 mM solution) were then added to the fluorescing solution and the florescence measured after each addition until a 50% reduction of fluorescence occurred. If the 10 mM stock solution lowered the % fluorescence too quickly, the stock solution was further diluted to 1 mM prior to titration. The apparent binding constant was then calculated from this equation: KEtBr [EtBr]=Kapp [drug], where [drug]=the concentration of drug at a 50% reduction of fluorescence and KEtBr [1×10^7 M^-1 for calf thymus and coliphage T4 DNA^18, 9.5×10^6 M^-1 for poly(dA.dT)^30, and 9.9×10^6 M^-1 for poly(dG.dC)^30 ] and [EtBr] were known. The concentration of ethidium bromide was 1.3 μM. The Kapp values are shown in Table I. In a separate experiment, the Kapp of Compound 5 for calf thymus DNA and poly[dGdC] were determined to be 0.3×10^5 M^-1 and 2.6×10^5 M^-1, respectively. The error in these measurements is ±[…].
# T4 coliphage DNA = assay: ethidium displacement assay, T4 coliphage DNA; conditions: ± 0.02 × 10^5 M^-1, pH 7.4
# Description: as §1
# The apparent binding constants for T4 coliphage DNA are an indicator of the minor groove selectivity of the compounds of the present invention. The major groove of T4 coliphage DNA is blocked by α-glycosylation of the 5-hydroxymethylcytidine residues; therefore, the non-intercalating agents that bind to T4 coliphage DNA must interact in the minor groove [Lown (1982) Acc. Chem. Res., 15, 381].
# as §2, §3, §4
# poly(dGdC) = assay: ethidium displacement assay, poly(dGdC); conditions: poly(dGdC); ± 0.02 × 10^5 M^-1; pH 7.4
# Description: as §1, §2, §3, §4
# poly(dA.dT) = assay: circular dichroism (CD) titration, poly(dA.dT); conditions: for CD titration result in words: r' up to ~1.0
# Description: The DNA binding properties of the present compounds were assessed by circular dichroism (CD) titration experiments. Methods for CD titration can be found, for example, in Zimmer et al. (1986) Prog. Biophys. Molec. Biol 47, 31. The conformation of DNA can be readily determined by CD experiments, and for B-DNA, characteristic positive and negative Cotton effects are observed at 260 and 245 nm, respectively.
# The interaction of Compounds 6-10 to a number of DNAs [calf thymus, poly(dA dT) and poly(dG dC)] were analyzed by CD titration studies. All the CD titration experiments were performed using identical procedures, concentrations of DNA, and increments of drug:DNA ratios (or `r`, i.e. moles of drug to moles of DNA base pairs). Therefore, the differences observed in the CD spectra for the titration of each of the compounds to the polydeoxynucleotides may be directly compared to reflect their DNA binding properties.
# All experiments were performed with a continuous flow of nitrogen purging the polarimeter. A 1 mm path length jacketed cell was used and all experiments were done at room temperature. Initially, DNA [0.02 μ moles (base pairs), 130 μL] was placed in the cell and the spectrum of the DNA alone was collected. Aliquots of drug were added and the spectra collected. […] The scan parameters were set and standard for all experiments. The spectra were collected from 400 nm to 200 nm. The sensitivity was set at 1 mdeg and the scan speed was set at 20 nm per minute. Three scans were accumulated and automatically averaged by the computer. The λmax and ellipticity (mdeg) for each spectrum were collected from the raw scans and the final plots were smoothed by the noise reduction program on the computer. […] The induced CD band is presumably due to the uv absorption π to π^* transition of the drug in the drug:DNA complex. […] Therefore interaction of these drugs with DNA causes only minor conformational changes in the double helix.
Structure (SMILES),Association constant Kapp (calf thymus DNA) [M⁻¹],Association constant Kapp (T4 coliphage DNA) [M⁻¹],Association constant Kapp (poly(dGdC)) [M⁻¹],"negative Cotton effect band, ellipticity (poly(dA.dT); 315 nm, equimolar titration) [mdeg]","induced negative CD band, ellipticity (poly(dA.dT); 310 nm, r'=0.2) [mdeg]","induced positive CD band, ellipticity (poly(dA.dT); 350 nm, r'=0.2) [mdeg]",isobestic point (poly(dA.dT); poly(dA.dT)) [nm],CD titration result in words (poly(dA.dT))
"CN(C)CCNC(=O)c1nc(NC(=O)c2nc(NC(=O)CCCc3ccc(N(CCCl)CCCl)cc3)cn2C)cn1C [Compound 9, N-(N',N'-dimethylaminoethyl)-1-methyl-4-{4-[4,4-bis(2-chloroethyl)aminophenyl-1-butanamido]-1-methylimidazole-2-carboxamido}imidazole-2-carboxamide]",64000,75000,76000,,,,,
"CN(C)CCNC(=O)c1nc(NC(=O)c2nc(NC(=O)c3nc(NC(=O)CCCc4ccc(N(CCCl)CCCl)cc4)cn3C)cn2C)cn1C [Compound 10, N-(N',N'-dimethylaminoethyl)-1-methyl-4-{1-methyl-4-[4-(4,4-bis(2-chloroethyl)aminophenyl-1-butanamido)-1-methylimidazole-2-carboxamido]imidazole-2-carboxamido}imidazole-2-carboxamide]",22000,19000,16000,-0.8,,,,
"CN(C)CCNC(=O)c1nc(NC(=O)c2nc(NC(=O)c3ccc(N(CCCl)CCCl)cc3)cn2C)cn1C [Compound 6, N-(N',N'-dimethylaminoethyl)-1-methyl-4-{4-[4,4-bis(2-chloroethyl)aminobenzamido]-1-methylimidazole-2-carboxamido}imidazole-2-carboxamide]",456000,236000,455000,,0.4,1.8,315,
"CN(C)CCNC(=O)c1nc(NC(=O)c2nc(NC(=O)c3nc(NC(=O)c4ccc(N(CCCl)CCCl)cc4)cn3C)cn2C)cn1C [Compound 7, N-(N',N'-dimethylaminoethyl)-1-methyl-4-{1-methyl-4-[4-(4,4-bis-(2-chloroethyl)aminobenzamido)-1-methylimidazole-2-carboxamido]imidazole-2-carboxamido}imidazole-2-carboxamide]",591000,168000,495000,,,,,minor changes in the CD spectrum
"CN(C)CCNC(=O)c1nc(NC(=O)c2nc(NC(=O)c3nc(NCc4ccc(N(CCCl)CCCl)cc4)cn3C)cn2C)cn1C [Compound 8, N-(N',N'-dimethylaminoethyl)-1-methyl-4-{1-methyl-4-[4-(4,4-bis-(2-chloroethyl)aminobenzylamino)-1-methylimidazole-2-carboxamido]imidazole-2-carboxamido}imidazole-2-carboxamide]",473000,193000,339000,,,,,did not produce any changes in the CD spectrum
